In US11549134B2, “Modified amadoriase and method for producing the same, agent for improving surfactant resistance of amadoriase and composition for measuring HbA1c using the same” (Kikkoman Corporation, priority 2013, dated 2023):

B1: PnFX: fructosyl peptide oxidase derived from Phaeosphaeria nodorum, SEQ ID NO: 40 (protein, listed as Phaeosphaeria nodorum)
chain: MAPSRANTSVIVVGGGGTIGSSTALHLVRSGYTPSNVTVLDAYPIPSSQSAGNDLNKIMGVSLRNPVDLQLALEARQMWNEDELFKKFFHNTGRLDCAHGEKDIADLKSGYQALVDAGLDATNEWLDSEDEILKRMPLLSRDQIKGWKAIFSKDGGWLAAAKAINAVGEYLRDQGVRFGFYGAGSFKAPLLAEGVCIGVETVDGTRYYADKVVLAAGAWSPTLVELHEQCVSKAWVYGHIQLTPEEAARYKNSPVVYNGDVGFFFEPNEHGVIKVCDEFPGFTRFKMHQPFGAKAPKRISVPRSHAKHPTDTIPDASDVSIRRAIATFMPQFKNKKMFNQAMCWCTDTADAALLICEHPEWKNFVLATGDSGHSFKLLPNIGKHVVELLEGTLADDLAHAWRWRPGSGDALKSRRSAPAKDLADMPGWNHDKPRANL

Legend:
[1] = system: CFP-T7; test: Surfactant resistance of amadoriase in presence of buffering agents; format: biochemical, genus Coniochaeta; conditions: for CFP-T7 Residual Activity (%): 0.01% CTAC, purified CFP-T7
Description: In the above surfactant resistance measuring method, the residual activity of an amadoriase is measured by using various buffers in place of a 30 mM MES/21 mM Tris buffer solution. In this manner, the contribution of the buffer to the amadoriase residual activity can be evaluated. For example, in place of the 30 mM MES/21 mM Tris buffer solution (pH 6.5), e.g., a phosphate buffer solution (pH 7.0), a citrate buffer solution (pH 6.0), a HEPES buffer solution (pH 7.0) or an ACES buffer solution (pH 7.0) can be used. Other conditions and procedure can be the same as in the above surfactant resistance measuring method.
It was studied whether the surfactant resistance of an amadoriase is enhanced or not when a buffering agent other than a 30 mM MES/21 mM Tris buffering agent (pH 6.5) was used. Using CFP-T7 purified as described above as a sample, the final concentration of CTAC was set at 0.01% to evaluate the surfactant resistance of CFP-T7 according to the measurement method for surfactant resistance in Example 1 in the presence of any of various buffering agents, specifically a phosphate buffering agent containing phosphoric acid and potassium phosphate (pH 7.0), a citrate buffering agent containing citric acid and sodium citrate (pH 6.0), an MES buffering agent containing MES and it sodium salt (pH 7.0), an HEPES buffering agent containing HEPES and its sodium salt (pH 7.0), and an ACES buffering agent containing ACES and its sodium salt (pH 7.0), in place of the 30 mM MES/21 mM Tris buffering agent (pH 6.5).

[2] = system: CFP-T7; test: Surfactant resistance of amadoriase during addition of each stabilizer (CFP-T7); format: biochemical, genus Coniochaeta; conditions: 500 mM HEPES (pH 7.0), 0.01% CTAC
Description: (§1) In the above surfactant resistance measuring method, various stabilizers are added and the residual activity of an amadoriase is measured in order to evaluate the effect of the stabilizers. […] The concentration sufficient to provide a buffer capacity to a solution refers to the concentration at which pH is maintained within a predetermined range (for example pH5 to 10, pH6 to 8) without having pH change due to other reagents added to the solution. A concentration insufficient to provide a buffer capacity to a solution refers to the concentration at which pH changes by addition of other reagents to the solution and pH falls outside a particular range. These concentrations vary depending upon the type and amount of other reagents to be added to a solution; however, a person skilled in the art can appropriately determine the concentration by conventional methods. Other conditions and procedure can be the same as in the above surfactant resistance measuring method.
(§2) It was studied whether or not the addition of any of various stabilizers enhanced the surfactant resistance of an amadoriase. Phosphoric acid, a tricarboxylic acid (e.g., citric acid), a dicarboxylic acid (e.g., malic acid, maleic acid, citraconic acid, malonic acid, glutaric acid, or tartaric acid), a monpcarboxylic acid (e.g., acetic acid), MES, MOPS, MOPSO, or ammonium sulfate was used as a stabilizer. As a Comparative Example, CHES was used. To prevent change in pH when adding the stabilizer, 500 mM HEPES (pH 7.0) was used as a buffer solution; CFP-T7 purified as described above was used as a sample; the final concentration of CTAC was set at 0.01%; and any of the stabilizers was further added to evaluate the surfactant resistance of CFP-T7 according to the measurement method for surfactant resistance in Example 1. Using a 500 mM HEPES (pH 7.0) buffering agent and CFP-D2 purified as described above as a sample, any of the stabilizers was further added, and the surfactant resistance of CFP-D2 was evaluated according to the measurement method for surfactant resistance in Example 1 although under more harsh surfactant treatment conditions in which the final concentration of CTAC was set at 0.08% and the treatment temperature at 37° C.

[3] = system: PnFX; test: Surfactant resistance of PnFX during addition of each stabilizer; format: biochemical, Phaeosphaeria nodorum; conditions: 300 mM HEPES (pH 7.0), 0.04% CTAC
Description: The same stabilizers as those described above were used as stabilizers; 300 mM HEPES (pH 7.0) was used as a buffering agent to prevent a change in pH when the stabilizers was each added; PnFX purified as described above was used as a sample; the final concentration of CTAC was set at 0.04%; and the surfactant resistance of PnFX was evaluated as described above.

[4] = system: CFP-D2; test: Surfactant resistance of amadoriase during addition of each stabilizer (CFP-D2); format: biochemical, genus Coniochaeta; conditions: 500 mM HEPES (pH 7.0), 0.08% CTAC, 37°C
Description: as §1
as §2, with “To prevent change in pH when adding the stabilizer, 500 mM HEPES (pH 7.0) was used as a buffer solution; CFP-T7 purified as described above was used as a sample; the final concentration of CTAC was set at 0.01%; and any of the stabilizers was further added to evaluate the surfactant resistance of CFP-T7 according to the measurement method for surfactant resistance in Example 1.” left out

[5] = Measurement of fructosyl peptide sample (αFVH) under mixing of CTAC, change in absorbance at 751 nm; format: biochemical; conditions: for Amount of Change in Absorbance at Wavelength of 751 nm under Mixing of Each Concentration of CTAC: as in Example 5, Table 7
Description: The purified enzyme of CFP-T7 and CFP-D7 obtained in Example 3-2 was used to measure a sample as shown below. The activity values of CFP-T7 and CFP-D7 were determined using (reagent 1) adjusted to pH 7.0 with αFVH at a final concentration of 5 mM as a substrate according to the method for measuring amadoriase activity.
(Reagent 4) αFVH (125 mg) was dissolved in ion-exchanged water, the volume of the solution was fixed to 10 ml, and thereby a 30 mM substrate solution was obtained. In addition, the resultant was diluted by 1/714 with a CTAC solution to provide a 42 μM αFVH/0% to 0.2% CTAC solution.
(Reagent 6) (50 μl) was added to a mixed solution of 135 μl of (reagent 5) warmed at 37° C. for 5 minutes in advance and 25 μl of the sample prepared in (11) above to start reaction, and absorbance at a wavelength of 751 nm after reaction at 37° C. for 5 minutes was measured using an automated analyzer, Bio Majesty JCA-BM1650 (from JEOL Ltd.). Absorbance (reagent blank) at a wavelength of 751 nm measured by a similar operation for (reagent 4) prepared using ion-exchanged water in place of the substrate solution was used as a control to calculate the amount of change in absorbance (difference) when each sample was measured, using the following equation. The final concentration of a colorimetric substrate, DA-64, was 0.15 mM; the final concentration of αFVH in the case of the presence of a substrate was 5 μM; and the length (optical path) of the cell used for absorbance measurement was 1 cm. Amount of change in absorbance=ΔAes−Ae0
The amount of change in absorbance when αFVH/0% to 0.2% CTAC were used as samples was calculated.
The purified preparations of amadoriases obtained as described above were used as samples to measure αFVH under the mixing of CTAC using PnFX and NvFX as in Example 5.

[6] = Buffer Solution 50 mM, pH 7.0 (citrate pH 6.0)
[7] = Buffer Solution 100 mM, pH 7.0 (citrate pH 6.0)

Row | Molecule | CFP-T7 Residual Activity (%) [1, 6] [%] | CFP-T7 Residual Activity (%) [1, 7] [%] | CFP-T7 Residual Activity (%) ([2]; Stabilizer 2 mM, Table 9-1) | CFP-T7 Residual Activity (%) ([1]; Buffer Solution 150 mM, pH 7.0) | CFP-T7 Residual Activity (%) ([1]; Buffer Solution 300 mM, pH 7.0) | CFP-T7 Residual Activity (%) ([2]; Stabilizer 10 mM, Table 9-1) | CFP-T7 Residual Activity (%) ([2]; Stabilizer 20 mM, Table 9-1) | CFP-T7 Residual Activity (%) ([2]; Stabilizer 5 mM, Table 9-1) | CFP-D2 Residual Activity (%) ([4]; Stabilizer 5 mM) | PnFX Residual Activity (%) ([3]; Stabilizer 5 mM) | further results
1 | O=C(O)CC(O)(CC(=O)O)C(=O)O [Citrate, citric acid] | 108.2 | 105.7 | 87.6 |  |  |  |  |  |  |  | CFP-T7 Residual Activity (%) ([1]; Buffer Solution 10 mM, pH 7.0 (citrate pH 6.0)): 104.1%; amadoriase stabilizing effect of the buffer (in words) ([1]; CFP-T7 in the presence of surfactant): inactivation due to the surfactant did not occur even at 10 mM; CFP-T7 Residual Activity (%) ([2]; Stabilizer 0.2 mM, Table 9-1): 12.2%; CFP-T7 Residual Activity (%) ([2]; Stabilizer 0.5 mM, Table 9-1): 30.7%; PnFX Residual Activity (%) ([3]; Stabilizer 0.5 mM): 47.3%
2 | O=S(=O)(O)CCN1CCOCC1 [MES, 2-(N-morpholino)ethanesulfonic acid] | 14.3 | 17.6 |  | 62.9 | 95.8 | 19.5 | 54.1 |  |  |  | CFP-T7 Residual Activity (%) ([2]; Stabilizer 40 mM, Table 9-1): 103.0%; PnFX Residual Activity (%) ([3]; Stabilizer 20 mM): 89.6%
3 | O=S(=O)(O)CCCN1CCOCC1 [MOPS, 3-(N-morpholino)propanesulfonic acid] |  |  |  |  |  |  |  |  |  |  | CFP-T7 Residual Activity (%) ([2]; Stabilizer 10 mM, Table 9-2): 6.5%; CFP-T7 Residual Activity (%) ([2]; Stabilizer 20 mM, Table 9-2): 20.6%; CFP-D2 Residual Activity (%) ([4]; Stabilizer 20 mM): 42.4%
4 | O=C(O)CC(O)C(=O)O (stereo not drawn) [Malate, malic acid] |  |  | 12.6 |  |  | 74.3 |  | 35.4 | 59.2 | 60.4 | 
5 | O=P(O)(O)O [Phosphate, phosphoric acid] | 27.2 | 68.3 | 28.1 | 88.5 | 98.4 | 76.8 | 98.6 | 61.6 | 72.8 | 37.5 | CFP-T7 Residual Activity (%) ([1]; Buffer Solution 20 mM, pH 7.0 (citrate pH 6.0)): 15.1%; CFP-T7 Residual Activity (%) ([2]; Stabilizer 50 mM, Table 9-1): 100.0%
6 | B1 |  |  |  |  |  |  |  |  |  |  | measurement of αFVH under the mixing of CTAC (in words) [5]: capable of measuring αFVH as a substrate under the mixing of CTAC at a concentration as high as 0.02% or more; Amount of Change in Absorbance at Wavelength of 751 nm under Mixing of Each Concentration of CTAC ([5]; Mixing of CTAC 0%): 0.173; Amount of Change in Absorbance at Wavelength of 751 nm under Mixing of Each Concentration of CTAC ([5]; Mixing of CTAC 0.01%): 0.115; Amount of Change in Absorbance at Wavelength of 751 nm under Mixing of Each Concentration of CTAC ([5]; Mixing of CTAC 0.02%): 0.084; Amount of Change in Absorbance at Wavelength of 751 nm under Mixing of Each Concentration of CTAC ([5]; Mixing of CTAC 0.04%): 0.026; Amount of Change in Absorbance at Wavelength of 751 nm under Mixing of Each Concentration of CTAC ([5]; Mixing of CTAC 0.06%): 0.008; Amount of Change in Absorbance at Wavelength of 751 nm under Mixing of Each Concentration of CTAC ([5]; Mixing of CTAC 0.1%): 0.003; Amount of Change in Absorbance at Wavelength of 751 nm under Mixing of Each Concentration of CTAC ([5]; Mixing of CTAC 0.2%): 0.001; PnFX Residual Activity (%) ([3]; Stabilizer None): 27.9%
